{
  "source": "patent US5726162A",
  "about": "(priority 1996, dated 1998)",
  "data": [
    {"tested_on": "Magnaporthe grisea (Pyricularia oryzae)", "experiment": "whole plant or invertebrate", "assay_type": "in vivo, Magnaporthe grisea (Pyricularia oryzae) on M201 rice plants", "conditions": "Pyricularia oryzae, 144 h, read-out: % Control RB", "units": {"pest or weed control at 200 ppm": "%"}, "values": [
      {"compound": "CC#CCN1N=C(c2ccc3ccccc3c2)CCC1=O", "note": "[Compound 135]", "pest or weed control at 200 ppm": 0}
    ]},
    {"tested_on": "fungal mycelium", "experiment": "organism not typed", "assay_type": "cell-based", "conditions": "read-out: % growth inhibition", "units": {"inhibition at 50 ppm": "%", "inhibition at 100 ppm": "%", "inhibition at 10 ppm": "%", "inhibition at 1 ppm": "%", "inhibition at 5 ppm": "%"}, "values": [
      {"compound": "CCC#CCN1N=C(c2cccc(C#N)c2)CCC1=O", "note": "[Compound 217, 6-(3-cyanophenyl)-2-(2'-pentynyl)-4,5-dihydropyridazinone]", "inhibition at 50 ppm": 100},
      {"compound": "CCC#CCN1N=C(c2ccccc2C)CCC1=O", "note": "[Compound 210, 6-(2-methylphenyl)-2-(2'-pentynyl)-4,5-dihydropyridazinone]", "inhibition at 50 ppm": 35},
      {"compound": "CCC#CCN1N=C(c2ccc(C)c(F)c2)CCC1=O", "note": "[Compound 225, 6-(3-fluoro-4-methylphenyl)-2-(2'-pentynyl)-4,5-dihydropyridazinone]", "inhibition at 50 ppm": 100},
      {"compound": "Cc1cc(C)n(C(=O)CN2N=C(c3ccc(Cl)cc3)CCC2=O)n1", "note": "[Compound 237, 6-(4-chlorophenyl)-2-(3,5-dimethyl-1-pyrazoylmethylene)-4,5-dihydropyridazinone]", "inhibition at 100 ppm": 58},
      {"compound": "CCC#CCN1N=C(c2ccccc2F)CCC1=O", "note": "[Compound 209, 6-(2-fluorophenyl)-2-(2'-pentynyl)-4,5-dihydropyridazinone]", "inhibition at 50 ppm": 85.7},
      {"compound": "CCC#CCn1nc(-c2cc(F)cc(F)c2)ccc1=O", "note": "[Compound 126]", "inhibition at 10 ppm": 100},
      {"compound": "O=C1CCC(c2ccc(Cl)cc2)=NN1Cc1n[nH]c(=O)o1", "note": "[Compound 238]", "inhibition at 100 ppm": 31.6},
      {"compound": "CCC#CCn1nc(CN2N=C(c3ccc(Cl)cc3)CCC2=O)oc1=O", "note": "[Compound 239]", "inhibition at 100 ppm": 100},
      {"compound": "CCC#CCN1N=C(c2ccc(OC)c(C)c2)CCC1=O", "note": "[Compound 226]", "inhibition at 50 ppm": 100},
      {"compound": "CC#CCN1N=C(c2ccc(Cl)cc2)COC1=O", "note": "[Compound 163]", "inhibition at 10 ppm": 12.7},
      {"compound": "CCC#CCN1N=C(c2ccc3c(c2)CCc2ccccc2-3)CCC1=O", "note": "[Compound 227, 6-(9,10-dihydro-2-phenanthrene)-2-(2'-pentynyl)-4,5-dihydropyridazinone]", "inhibition at 10 ppm": 30},
      {"compound": "CCC#CCN1N=C(c2ccc3c(c2)OCO3)CCC1=O", "note": "[Compound 207, 6-(3,4-methylenedioxyphenyl)-2-(2'-pentynyl)-4,5-dihydropyridazinone]", "inhibition at 1 ppm": 100},
      {"compound": "CCC#CCN1N=C(C=Cc2ccc(Cl)cc2)CCC1=O", "note": "[Compound 205, 6-(4-chlorostyryl)-2-(2'-pentynyl)-4,5-dihydropyridazinone]", "inhibition at 10 ppm": 100},
      {"compound": "CCC#CCn1nc2c(cc1=O)-c1cccc3cccc-2c13", "note": "[Compound 232, 8-(2'-pentynyl)-acenaphtho[1,2c]pyridazin-9-one]", "inhibition at 5 ppm": 45.5},
      {"compound": "CCC#CCN1N=C(c2csc3ccccc23)CCC1=O", "note": "[Compound 235, 6-(3-thianaphthene)-2-(2'-pentynyl)-4,5-dihydropyridazinone]", "inhibition at 100 ppm": 100},
      {"compound": "CN1N=C(c2ccc(Cl)cc2)CCC1=O", "note": "[Compound 201, 6-(4-chlorophenyl)-2-methyl-4,5-dihydropyridazinone]", "inhibition at 10 ppm": 10},
      {"compound": "O=C1CCC(c2ccc(Cl)cc2)=NN1Cc1nn(CC#CI)c(=O)o1", "note": "[Compound 241]", "inhibition at 100 ppm": 100},
      {"compound": "CCC#CC(C)N1N=C(c2ccc(Cl)cc2)CCC1=O", "note": "(centres unmarked) [Compound 208, 6-(4-chlorophenyl)-2-(1-methyl-2-pentynyl)-4,5-dihydropyridazinone]", "inhibition at 1 ppm": 28.6},
      {"compound": "CCC#CCN1N=C2c3ccc(Cl)cc3CCC2CC1=O", "note": "(centres unmarked) [Compound 200, 4,4a,5,6-tetrahydro-8-chloro[h]-cinnolin-2-(2'-pentynyl)-3-one]", "inhibition at 10 ppm": 100},
      {"compound": "CCC#CCN1N=C(c2ccc(F)c(F)c2)CCC1=O", "note": "[Compound 224, 6-(3,4-difluorophenyl)-2-(2'-pentynyl)-4,5-dihydropyridazinone]", "inhibition at 50 ppm": 100},
      {"compound": "CCC#CCC1CC(c2ccc(Cl)cc2)=NN(C)C1=O", "note": "(centres unmarked) [Compound 203, 6-(4-chlorophenyl)-4-(2'-pentynyl)-2-methyl-4,5-dihydropyridazinone]", "inhibition at 10 ppm": 100},
      {"compound": "CCC#CCN1N=C(c2cccc([N+](=O)[O-])c2)CCC1=O", "note": "[Compound 218, 6-(3-nitrophenyl)-2-(2'-pentynyl)-4,5-dihydropyridazinone]", "inhibition at 50 ppm": 100}
    ]}
  ]
}
